Measured values published in patent publication US7601726B2, “Substituted pyrazolo[3,4-d]pyrimidines as p38 MAP kinase inhibitors” (Roche Palo Alto LLC, priority 2005, dated 2009).
pIC50: −log10 of the molar value.

Tested on: not given
Experiment: not given
Conditions: not given

| melting point | SMILES |
| --- | --- |
| 206.3 to 207.51 °C | O=C(Nc1n[nH]c2nc(Oc3ccc(F)cc3F)ncc12)C1CCCC1 [Table 1 #38, Cyclopentanecarboxylic acid [6-(2,4-difluoro-phenoxy)-1H-pyrazolo[3,4-d]pyrimidin-3-yl]-amide] |
| 270.1 to 272 °C | O=C(Nc1n[nH]c2nc(Oc3ccc(F)cc3F)ncc12)OCc1ccccc1 [Table 1 #42, [6-(2,4-Difluoro-phenoxy)-1H-pyrazolo[3,4-d]pyrimidin-3-yl]-carbamic acid benzyl ester] |

The remaining lines, values behind:

| SMILES | melting point |
| --- | --- |
| OC[C@H](O)COc1cc(Oc2ccc(F)cc2F)cc2[nH]nc(-c3ccccc3Cl)c12 (stereo in doubt) [Table 2 #1, 3-[3-(2-Chloro-phenyl)-6-(2,4-difluoro-phenoxy)-1H-indazol-4-yloxy]-propane-1,2-diol] | 93.3 to 94.6 °C |
| CCS(=O)(=O)Nc1n[nH]c2nc(Oc3ccc(F)cc3F)ncc12 [Table 1 #14, Ethanesulfonic acid [6-(2,4-difluoro-phenoxy)-1H-pyrazolo[3,4-d]pyrimidin-3-yl]-amide] | 226 to 226.9 °C |
| CC(C)Nc1n[nH]c2nc(Oc3ccc(F)cc3F)ncc12 [Table 1 #1, [6-(2,4-Difluoro-phenoxy)-1H-pyrazolo[3,4-d]pyrimidin-3-yl]-isopropyl-amine] | 211.3 to 214.4 °C |

Target: T1, p38 MAP kinase (Homo sapiens, UniProt Q16539)
T1 construct: made in house; host or cells: E. coli (co-expressed with SEK-1 and MEKK)
T1 sequence (Q16539 whole entry): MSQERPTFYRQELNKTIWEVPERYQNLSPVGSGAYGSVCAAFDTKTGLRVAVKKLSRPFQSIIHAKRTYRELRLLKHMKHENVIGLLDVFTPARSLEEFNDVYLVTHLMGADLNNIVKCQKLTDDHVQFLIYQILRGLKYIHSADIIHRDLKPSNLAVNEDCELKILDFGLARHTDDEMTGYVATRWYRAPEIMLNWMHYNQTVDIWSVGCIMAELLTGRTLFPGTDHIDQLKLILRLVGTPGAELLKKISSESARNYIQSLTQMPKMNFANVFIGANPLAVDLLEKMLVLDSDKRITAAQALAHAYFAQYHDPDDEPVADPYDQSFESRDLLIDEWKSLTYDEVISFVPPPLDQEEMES
Experiment: p38 (MAP) kinase in vitro assay (transfer of γ-phosphate from γ-33P-ATP to Myelin Basic Protein)
Type: biochemical
Conditions: phosphorylated recombinant p38 MAP kinase, MBP substrate, 30° C.
Protocol: This example illustrates a p38 (MAP) kinase in vitro assay useful for evaluating the compounds of the invention.
The p38 MAP kinase inhibitory activity of compounds of this invention in vitro was determined by measuring the transfer of the γ-phosphate from γ-^33P-ATP by p-38 kinase to Myelin Basic Protein (MBP), using a minor modification of the method described in Ahn, et al., J. Biol. Chem. 266:4220-4227 (1991).
The phosphorylated form of the recombinant p38 MAP kinase was co-expressed with SEK-1 and MEKK in E. Coli (see, Khokhlatchev, et al., J. Biol. Chem. 272:11057-11062 (1997)) and then purified by affinity chromatography using a Nickel column.
The phosphorylated p38 MAP kinase was diluted in kinase buffer (20 mM 3-(N-morpholino)propanesulfonic acid, pH 7.2, 25 mM β-glycerol phosphate, 5 mM ethylene glycol-bis(beta-aminoethyl ether)-N,N,N′,N′-tetraacetic acid, 1 mM sodium ortho-vanadate, 1 mM dithiothreitol, 40 mM magnesium chloride). Test compound dissolved in DMSO or only DMSO (control) was added and the samples were incubated for 10 min at 30° C. The kinase reaction was initiated by the addition of a substrate cocktail containing MBP and γ-^33P-ATP. […] The phosphorylated MBP was then separated from the residual γ-^33P-ATP using a phosphocellulose membrane (Millipore, Bedfrod, Mass.) and quantitated using a scintillation counter (Packard, Meriden, Conn.).

| pIC50 | SMILES |
| --- | --- |
| ~8.40 | OC[C@H](O)CNc1cc(Oc2ccc(F)cc2F)cc2[nH]nc(-c3ccccc3Cl)c12 (stereo in doubt) [3-[3-(2-Chloro-phenyl)-6-(2,4-difluoro-phenoxy)-1H-indazol-4-ylamino]-propane-1,2-diol] |
| ~7.80 | O=C(Nc1n[nH]c2nc(Oc3ccc(F)cc3F)ncc12)c1ccccc1Br [2-Bromo-N-[6-(2,4-difluoro-phenoxy)-1H-pyrazolo[3,4-d]pyrimidin-3-yl]-benzamide] |
